This is an account of results in patent US20070082920A1, “NAD+-dependent DNA ligase inhibitors” (priority 2005, published 2007).

Molecules are shown by their SMILES. Where only a bound is given, the exact number is not on record here.

Series [1] concerns Staphylococcus aureus ATCC 29213. Nature of the series: MIC, broth microdilution (CLSI), S. aureus. It is filed as cell-based. To be noted: lowest concentration inhibiting visual growth. On the procedure:
(§1) The compounds of Formulas 1-VIII were evaluated as inhibitors of NAD+-dependent DNA ligase inhibitors. Their antimicrobial activity was evaluated against bacteria using the broth microdilution method as described by Clinical Laboratory Standards Institute (formerly NCCLS). Activity was assessed against the following bacterial strains: Staphylococcus aureus ATCC 29213, Streptococcus pneumoniae ATCC 49619, Escherichia coli ATCC 25922, E. coli CGSC 5633 (ToIC mutant), Haemophilus influenzae ATCC 49766, Streptococcus pyogenes ATCC 19615, Moraxella catterhalis ATCC 25238, Enterococcus faecalis ATCC 29212. The lowest concentration of compound which inhibited visual growth of each bacterium, the minimum inhibitory concentration (MIC), was determined.
In general terms: In broth dilution the organism is exposed to a series of concentrations in liquid medium.

Series [2] has as its system Streptococcus pneumoniae ATCC 49619. Nature of the series: MIC, broth microdilution (CLSI), S. pneumoniae. The series is classed as cell-based. On the procedure: as §1
Series [3] concerns Escherichia coli ATCC 25922. Description: MIC, broth microdilution (CLSI), E. coli ATCC 25922. The series is classed as cell-based. On the procedure: as §1
In series [4] the test system is E. coli CGSC 5633 (ToIC mutant). Description: MIC, broth microdilution (CLSI), E. coli CGSC 5633. It is filed as cell-based, Escherichia coli. On the set-up: unit not given beside the values. On the procedure: as §1
Series [5] relates to Enterococcus faecalis ATCC 29212. Description: MIC, broth microdilution (CLSI), E. faecalis. It is filed as cell-based. On the set-up: unit not given here. On the procedure: as §1
In series [6] the test system is Haemophilus influenzae ATCC 49766. Description: MIC, broth microdilution (CLSI), H. influenzae. It is filed as cell-based. Also on record: unit not given beside the values. On the procedure:
as §1

For series [7], the system named is Moraxella catterhalis ATCC 25238. Nature of the series: MIC, broth microdilution (CLSI), M. catarrhalis. The series is classed as cell-based. On the procedure: as §1
The subject of series [8] is Streptococcus pyogenes ATCC 19615. Nature of the series: MIC, broth microdilution (CLSI), S. pyogenes. It is filed as cell-based. On the procedure:
as §1

Series [9] can be described thus: Acute toxicity, Alamar blue cell viability, HepG2. The series is classed as cell-based. To be noted: human. On the procedure: (§2) Acute toxicity was assessed against two mammalian cell lines, HepG2 (human hepatocyte) and NIH 3T3 (mouse fibroblast). Cell viability was measured by an in vitro assay using Alamar blue. The concentration of compound which inhibited 50% of the cell growth (LC50) was determined.

A short description of series [10]: Acute toxicity, Alamar blue cell viability, NIH 3T3. The series is classed as cell-based. To be noted: mouse. On the procedure: as §2
Series [11] addresses DNA ligase enzyme (NAD+-dependent DNA ligase) (Streptococcus pneumoniae serotype 4, UniProt Q97QT2). Description: DNA ligase AMP release assay (luciferase readout). To be noted: purified enzyme from S. pneumoniae. It is filed as biochemical. On the procedure: Activity against DNA ligase enzyme was measured using purified enzyme from S. pneumoniae. An AMP release assay was used to assess activity of compounds against the enzyme. AMP, released as a result of the ligation of oligonucleotides, is converted to ATP, which is then measured using luciferase enzyme. The concentration of compound which inhibited 50% of the ligation activity of the enzyme (IC50) was determined.

For series [12], the system named is NAD+-dependent DNA ligase. To be noted: specific DHFR inhibitors; background; cited from earlier work.

Chain of DNA ligase enzyme (NAD+-dependent DNA ligase) (Q97QT2 whole entry): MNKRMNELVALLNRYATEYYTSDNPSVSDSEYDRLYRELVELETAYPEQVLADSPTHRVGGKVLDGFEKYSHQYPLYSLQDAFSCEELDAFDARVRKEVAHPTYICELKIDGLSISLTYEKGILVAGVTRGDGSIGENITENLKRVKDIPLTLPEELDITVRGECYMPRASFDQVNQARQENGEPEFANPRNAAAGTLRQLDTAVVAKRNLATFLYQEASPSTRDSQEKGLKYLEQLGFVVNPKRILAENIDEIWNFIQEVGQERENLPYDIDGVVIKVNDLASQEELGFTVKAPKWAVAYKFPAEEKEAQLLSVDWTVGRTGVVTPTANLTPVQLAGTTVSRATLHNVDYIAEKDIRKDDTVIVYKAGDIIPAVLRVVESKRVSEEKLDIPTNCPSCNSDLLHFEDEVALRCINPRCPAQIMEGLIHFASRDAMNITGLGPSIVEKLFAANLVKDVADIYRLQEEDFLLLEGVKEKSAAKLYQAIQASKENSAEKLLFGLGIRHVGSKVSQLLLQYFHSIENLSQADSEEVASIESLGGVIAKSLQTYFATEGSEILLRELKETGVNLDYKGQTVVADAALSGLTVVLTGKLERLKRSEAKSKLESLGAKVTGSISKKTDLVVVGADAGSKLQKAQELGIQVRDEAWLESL

The term CC50 denotes the concentration that lowers cell viability or growth by half. The term IC50 denotes the concentration needed to halve the response being measured. Turning to `Nc1nc(N)c2c3c(c(NCc4ccc(F)c(F)c4)nc2n1)CCCC3` [VII-a], in series [1], the “MIC S. aureus ATCC 29213” value was found to be 16. Also, the “MIC S. pneumoniae” value in series [2] is 4. The “MIC E. coli ATCC 25922” value in series [3] is over 128. Also, the “MIC E. coli CGSC 5633” value in series [4] is listed as 0.5. The “MIC E. faecalis” value in [5] is 8. Also, in series [6], the “MIC H. influenzae” value was 64. In series [7], the “MIC M. catarrhalis” value is 8. The “MIC S. pyogenes” value in [8] stood at 32. Besides, the CC50 was determined as 19.2 µM in [9] and 1.24 µM in [10]. Also, the IC50 in [11] stood at 17.3 µM.

Take `CN(Cc1cnc2nc(N)nc(N)c2n1)c1ccc(C(=O)N[C@@H](CCC(=O)O)C(=O)O)cc1` [methotrexate]: the “inhibition of NAD+-dependent DNA ligase (in words)” value in series [12] is given as “not to inhibit”.

For the compound `Cc1c(Cc2ccccc2)c(NCc2ccc(F)c(F)c2)nc2nc(N)nc(N)c12` [II-b], in series [1], the “MIC S. aureus ATCC 29213” value is reported as 4. Besides, in series [2], the “MIC S. pneumoniae” value is given as 4. Moreover, the “MIC E. coli ATCC 25922” value in [3] came out at 32. For the same compound, the “MIC E. coli CGSC 5633” value in [4] stood at 0.125. The “MIC E. faecalis” value in series [5] turned out to be 1. Moreover, the “MIC H. influenzae” value in series [6] came out at 64. The “MIC M. catarrhalis” value in series [7] came out at 2. For the same compound, the “MIC S. pyogenes” value in series [8] was determined as 1. Also, the CC50 was determined as 14 µM in [9] and 2.94 µM in series [10]. The compound also returned an IC50 in series [11] of 12.6 µM.

Take `Cc1cc(N2Cc3ccccc3C2)nc2nc(N)nc(N)c12` [V-b]: the “MIC S. aureus ATCC 29213” value in series [1] was found to be 16. In addition, the “MIC S. pneumoniae” value in [2] came out at 8. For the same compound, in series [3], the “MIC E. coli ATCC 25922” value is listed as 64. Further, the “MIC E. coli CGSC 5633” value in series [4] turned out to be 2. In addition, in series [5], the “MIC E. faecalis” value was 8. The “MIC H. influenzae” value in [6] is given as over 128. Moreover, in series [7], the “MIC M. catarrhalis” value came out at 32. The “MIC S. pyogenes” value in series [8] is 16. The CC50 in series [9] worked out at 8.85 µM; in [10], 8.09 µM. The compound also came in with an IC50 in [11] of 7.35 µM.

With `CCCc1cc(N(C)C2CCCCC2)nc2nc(N)nc(N)c12` [IV-e], the “MIC S. aureus ATCC 29213” value in [1] turned out to be 32. The “MIC S. pneumoniae” value in series [2] came out at 2. In addition, the “MIC E. coli ATCC 25922” value in series [3] was 128. The “MIC E. coli CGSC 5633” value in [4] is 0.5. The “MIC E. faecalis” value in [5] turned out to be 1. Moreover, in series [7], the “MIC M. catarrhalis” value is 4. In [8], the “MIC S. pyogenes” value is listed as 1. The CC50 in series [9] came to 15.1 µM; in series [10], 9.9 µM. In series [11], this compound registered an IC50 of 80.6 µM.

For the compound `COc1cc(Cc2cnc(N)nc2N)cc(OC)c1OC` [trimethoprim], the “inhibition of NAD+-dependent DNA ligase (in words)” value in [12] is “not to inhibit”.

Turning to `CN(c1nc2nc(N)nc(N)c2c2c1CCCC2)C1CCCCC1` [VII-b], the “MIC S. aureus ATCC 29213” value in series [1] is listed as 8. Besides, the “MIC S. pneumoniae” value in series [2] is recorded as 8. Besides, in [3], the “MIC E. coli ATCC 25922” value was found to be 128. Moreover, in [4], the “MIC E. coli CGSC 5633” value was under 0.125. Also, in series [5], the “MIC E. faecalis” value is 4. The “MIC H. influenzae” value in series [6] came out at 64. For the same compound, in series [7], the “MIC M. catarrhalis” value was determined as 4. In series [8], the “MIC S. pyogenes” value was 4. In addition, the CC50 in series [9] was 19.2 µM; in series [10], 1.37 µM. This compound showed an IC50 in [11] of 5.94 µM.

`Cc1c(Cc2ccccc2)c(N(C)C2CCCCC2)nc2nc(N)nc(N)c12` [II-c]: the “MIC S. aureus ATCC 29213” value in series [1] turned out to be 4. For the same compound, the “MIC S. pneumoniae” value in [2] amounted to 4. For the same compound, the “MIC E. coli ATCC 25922” value in series [3] amounted to 128. For the same compound, the “MIC E. coli CGSC 5633” value in [4] is under 0.125. In series [5], the “MIC E. faecalis” value amounted to 2. The “MIC H. influenzae” value in series [6] is listed as over 128. Besides, the “MIC M. catarrhalis” value in series [7] was 2. In addition, the “MIC S. pyogenes” value in series [8] worked out at 2. For the same compound, the CC50 in series [9] is 15 µM; in series [10], 5.13 µM. In addition, in [11], the IC50 was 11.3 µM.

As to `Cc1cc(N(C)C2CCCCC2)nc2nc(N)nc(N)c12` [IV-d], the “MIC S. aureus ATCC 29213” value in [1] is on record as 64. Also, the “MIC S. pneumoniae” value in series [2] was determined as 8. For the same compound, the “MIC E. coli ATCC 25922” value in series [3] is 64. For the same compound, the “MIC E. coli CGSC 5633” value in series [4] turned out to be 0.125. For the same compound, the “MIC E. faecalis” value in [5] was 2. Further, the “MIC H. influenzae” value in [6] is 51. Also, the “MIC M. catarrhalis” value in series [7] is given as 16. For the same compound, the “MIC S. pyogenes” value in series [8] is reported as 32. Also, the CC50 in [9] turned out to be 23.4 µM; in series [10] it was 12.8 µM. The same compound displayed an IC50 in series [11] of 15.2 µM.
